Test results from paper PMC13372681, “A natural depsipeptide antibiotic binds the E-site of the bacterial ribosome” (Nature, 2026).
≈ marks a conversion by molar mass, not a printed value. Read-outs that look alike come from different tables or passages of the source. Where a SMILES comes first, the peptide text is derived from it. Bridges are numbered along the chain shown (N, C = ends). [ ]: non-standard residue; d: D form. dOrn = NCCC[C@@H](N)C(=O)O

Assays:
[1] = tested on: S. aureus ATCC 29213
[2] = tested on: E. coli C1508; details: broth microdilution, MDR clinical isolate
[3] = tested on: M. bovis BCG Pasteur ATCC 35734; details: Middlebrook 7H9 + 10% OADC + 0.05% Tween-80
[4] = tested on: S. aureus USA 300; details: USA 300
[5] = tested on: Bacillus subtilis 168
[6] = tested on: M. tuberculosis H37Ra; details: Middlebrook 7H9 + 10% OADC + 0.05% Tween-80
[7] = tested on: E. coli ΔtolC ΔbamB; details: broth microdilution
[8] = tested on: E. coli ribosome; test: Translocation assay; format: biochemical; details: 250 μM negamycin; pre-translocation complex, toeprint read-out
Description: In vitro translocation assay was carried out using the model mRNA MFK (Supplementary Table 9) as described. The mRNA was prepared by in vitro transcription of a PCR product amplified using the primers MF_F1, MF_F2, and MF_R (Supplementary Table 8). A 4.5 μl reaction containing 1 μM E. coli ribosomes, 0.5 μM mRNA, 1 μM tRNAi^Met, 0.5 μM radiolabelled NV1 primer (Supplementary Table 8), 2 U μl^−1 RiboLock RNase Inhibitor (Thermo), and antibiotic tested (50 μM MKM or 250 μM negamycin) in pure system buffer (PSB; 9 mM Mg(CH3COO)2, 5 mM K3PO4, 95 mM potassium glutamate, 5 mM NH4Cl, 0.5 mM CaCl2, 1 mM spermidine, 8 mM putrescine, 1 mM dithiothreitol, pH 7.3)[90] was incubated for 20 min at 37 °C. Then N-acetyl-Phe-N-tRNA^Phe (ref. [91]), in which amino acid is attached to the A3′ hydroxyl of the tRNA via an amide bond, was added to the final concentration of 2 μM followed by 10 min incubation at 37 °C. After addition of the E. coli EF-G and GTP to the final concentrations of 0.2 μM and 533 μM, respectively and incubation for 5 min at 30 °C, 1 µl of the mixture of AMV reverse transcriptase (Roche) and dNTPs (2.1 U/µl AMV reverse transcriptase and 2 mM dNTPs in PSB) was added, and the reactions were incubated for another 5 min at 30 °C. […]

SMILES	MIC [1]	MIC ([2]; Ca+ MHB Medium)	MIC ([2]; MOPS Minimal Medium)	MIC ([2]; RPMI Medium)	MIC [3]	MIC [4]	MIC [5]	MIC [6]	MIC ([7]; Ca+ MHB Medium)	MIC ([7]; MOPS Minimal Medium)	MIC ([7]; RPMI Medium)	inhibition of EF-G-dependent translocation [8]
C[C@@H](O)[C@@H]1NC(=O)[C@@H](CCCNC(=N)N)NC(=O)[C@@H](CCCNC(=N)N)NC(=O)[C@@H](CC(N)=O)NC(=O)[C@@H](NC(=O)[C@@H](Cc2ccccc2)NC(=O)[C@@H](CCCNC(=N)N)NC(=O)[C@H](N)CCCNC(=N)N)[C@@H](C)OC(=O)[C@H](Cc2c[nH]cn2)NC1=O [MKM-B] (H-[dR][dR][dF]T[dN][dR][dR]TH; ester 4-C)	32 µg/mL (≈ 26.1 µM)	16 µg/mL (≈ 13.1 µM)	4 µg/mL (≈ 3.26 µM)	4 µg/mL (≈ 3.26 µM)	0.25 µg/mL	64 µg/mL (≈ 52.2 µM)	32 µg/mL (≈ 26.1 µM)	0.25 µg/mL	4 µg/mL (≈ 3.26 µM)	1 µg/mL (≈ 0.816 µM)	1 µg/mL (≈ 0.816 µM)	
C[C@@H](O)[C@@H]1NC(=O)[C@@H](CCCNC(=N)N)NC(=O)[C@@H](CCCNC(=N)N)NC(=O)[C@@H](CC(N)=O)NC(=O)[C@@H](NC(=O)[C@@H](Cc2ccccc2)NC(=O)[C@@H](CCCN)NC(=O)[C@@H](CCCNC(=N)N)NC(=O)[C@@H](N)CCCNC(=N)N)[C@@H](C)OC(=O)[C@H](Cc2c[nH]cn2)NC1=O [MKM-E] (H-R[dR][dOrn][dF]T[dN][dR][dR]TH; ester 5-C; N-terminus assumed)	32 µg/mL (≈ 23.9 µM)	8 µg/mL (≈ 5.97 µM)	1 µg/mL (≈ 0.747 µM)	1 µg/mL (≈ 0.747 µM)	1 µg/mL	16 µg/mL (≈ 11.9 µM)	32 µg/mL (≈ 23.9 µM)	1 µg/mL	2 µg/mL (≈ 1.49 µM)	0.5 µg/mL (≈ 0.373 µM)	<0.5 µg/mL	
CN(CC(=O)O)NC(=O)C[C@H](N)C[C@@H](O)CN [negamycin]												notably inhibited
